Test results reported in patent US8551958B2, “Galactosylated pro-drugs of non-steroidal anti-inflammatories with improved pharmacokinetic characteristics and reduced toxicity of the starting drug” (Stewart Italia Srl, priority 2008, dated 2013).

Assays:
[1] = Chemical stability of the pro-drug (phosphate buffer pH 7.4; HCl 0.1 N pH 1), HPLC; type: physicochemical; conditions: in the dark; for pH 7.4 T½: phosphate buffer at pH 7.4, 37° C.; for pH 1 T½: solution of HCl 0.1 N (pH 1), 37° C.
Method: For the stability study, the solutions of pro-drug were prepared by dissolving an aliquot of Ketogal in a phosphate buffer at pH 7.4, or else in a solution of HCl 0.1 N (pH 1), as regards chemical stability, or else in a plasma specimen, for enzymatic stability. The solutions were kept in the dark, at a temperature of 37° C., for 24 hours. After each hour an aliquot of specimen was taken. In the case of plasma, said aliquot was previously extracted with acetonitrile (1:2), “vortexed” and centrifuged at 3000 r.p.m. for 10 min. The supernatant was taken and used for analysis at HPLC with diode detector. The half-lives for chemical stability and enzymatic stability were calculated by quantizing, in time, the percentage of pro-drug that remained in solution. For the chromatographic separations, a 1090L HPLC (Hewlett-Packard, Palo Alto, USA) was used, coupled to a diode detector HP 1040A. A Phenomenex Luna C18 (250×4.6 mm, 5 μm) column was used. The wavelength used was 313 nm. The mobile phase was constituted by acetonitrile and an aqueous solution of phosphoric acid […] (pH 3) in the ratio of 68:32. The flow was 1 mL/min, with an injection volume of 20 μl. All the reagents and the solvents used were of analytical degree. The distilled and deionized water was purified by means of a Milli Q system (Millipore). The retention times of the compounds were: ketorolac: 6.7 min; Ketogal: 3.8 min. As internal standard tolmetin was used (9.3 min). The straight line of calibration for quantification of the compounds was constructed using standard solutions with concentrations of between 0.1 and 100 μg/ml. The linearity was obtained with a coefficient of regression (R^2) of approximately 0.998.
For the study of the stability, the solutions of pro-drug were prepared by dissolving an aliquot of Flugal in a phosphate buffer at pH 7.4, as regards chemical stability, or else in a plasma specimen, for enzymatic stability. The solutions were kept in the dark, at a temperature of 37° C., for 24 hours. After each hour an aliquot of specimen was taken. In the case of the plasma said amount was previously extracted with acetonitrile (1:2), “vortexed”, and centrifuged at 3000 r.p.m. for 10 min. The supernatant was taken and used for analysis at HPLC with diode detector. The half-lives for the chemical stability and enzymatic stability were calculated by quantizing, in time, the percentage of pro-drug that remained in solution. A 1090L HPLC (Hewlett-Packard, Palo Alto, USA) coupled to a diode detector HP 1040A was used for the chromatographic separations. The column used was a Supelcosil LC-18, 250×4.6 mm, particle size […]. The volume injected was […] and the flow of 1 mL/min. The mobile phase was constituted by a mixture of aqueous CH3CN/H3PO4 1 mM (pH 3) [32:68]. For the quantitative determination reading was made at 250 nm. The retention times of the various compounds involved in the analysis were: for Flugal 6 min and for flurbiprofen 11 min. All the reagents and the solvents used were of analytical degree. The distilled and deionized water was purified by means of a Milli Q system (Millipore). The straight line of calibration for the quantification of the compounds was constructed using standard solutions with concentrations of between 0.1 and 100 μg/ml. Linearity was obtained with a coefficient of regression (R^2) of approximately 0.998. From the results of said analysis (illustrated in Table 3) it emerges that the pro-drug Flugal has a good chemical stability and a good susceptibility to enzymatic hydrolysis.
Chemical stability was assessed also at pH 1.0 in a solution of HCl 0.1N as described.
For the stability study, the solutions of pro-drug were prepared by dissolving an aliquot of Okigal in a phosphate buffer at pH 7.4, or else in a solution of HCl 0.1 N (pH 1), as regards chemical stability, or else in a plasma specimen, for enzymatic stability. The solutions were kept in the dark, at a temperature of 37° C., for 24 hours. […]

[2] = Enzymatic stability in plasma, HPLC; type: in vitro ADME; conditions: plasma specimen, 37° C., in the dark; read-out: Plasma T½ (converted)
Method: For the stability study, the solutions of pro-drug were prepared by dissolving an aliquot of Ketogal in a phosphate buffer at pH 7.4, or else in a solution of HCl 0.1 N (pH 1), as regards chemical stability, or else in a plasma specimen, for enzymatic stability. The solutions were kept in the dark, at a temperature of 37° C., for 24 hours. After each hour an aliquot of specimen was taken. In the case of plasma, said aliquot was previously extracted with acetonitrile (1:2), “vortexed” and centrifuged at 3000 r.p.m. for 10 min. The supernatant was taken and used for analysis at HPLC with diode detector. The half-lives for chemical stability and enzymatic stability were calculated by quantizing, in time, the percentage of pro-drug that remained in solution. For the chromatographic separations, a 1090L HPLC (Hewlett-Packard, Palo Alto, USA) was used, coupled to a diode detector HP 1040A. A Phenomenex Luna C18 (250×4.6 mm, 5 μm) column was used. The wavelength used was 313 nm. The mobile phase was constituted by acetonitrile and an aqueous solution of phosphoric acid […] (pH 3) in the ratio of 68:32. The flow was 1 mL/min, with an injection volume of 20 μl. All the reagents and the solvents used were of analytical degree. The distilled and deionized water was purified by means of a Milli Q system (Millipore). […] The straight line of calibration for quantification of the compounds was constructed using standard solutions with concentrations of between 0.1 and 100 μg/ml. […]
For the study of the stability, the solutions of pro-drug were prepared by dissolving an aliquot of Flugal in a phosphate buffer at pH 7.4, as regards chemical stability, or else in a plasma specimen, for enzymatic stability. […] The half-lives for the chemical stability and enzymatic stability were calculated by quantizing, in time, the percentage of pro-drug that remained in solution. […] For the quantitative determination reading was made at 250 nm. […] The straight line of calibration for the quantification of the compounds was constructed using standard solutions with concentrations of between 0.1 and 100 μg/ml. […]

[3] = test system: mice; test: Ulcerogenicity studies, flurbiprofen and flugal (NSAID-induced gastric damage in mice); type: in vivo; conditions: oral, after 4 h; for gastric lesion score / n. of ulcers: flurbiprofen 10 mg/kg, flugal 16.6 mg/kg (table); for n. of ulcers: fasted mice
Method: NSAID-induced gastric damage in mice was evaluated following the procedure described by Chan et al. (1995). […] After 4 h of treatment, mice were euthanized and the stomach was excised along its greater curvature and rinsed with normal saline. The mucosa was then examined by means of a magnifying glass for the presence of irritation or frank hemorrhagic lesions (ulcers). Irritation was assigned a score of 1, and ulcerations were scored according to their length (a score of 5 for lesions with a length between 1 and 3 mm; a score of 10 for lesions greater than 3 mm). The sum of total scores was used for comparison.

[4] = test system: mouse carrageenan paw oedema; test: Carrageenan oedema test; type: in vivo, mice; conditions: for Carrageenan-induced oedema, first phase (0-6 h): pro-drug 16.3 mg/kg oral; for Oedema formation after parent drug: 10 mg/kg oral
Method: Anti-inflammatory activity was tested by means of the carrageenan oedema test. The mice were divided into groups of six. The initial volumes of the leg of all the animals were measured using a plethysmometer. The oedema is induced in the leg by means of sub-plantar injection of 50 μl of saline solution containing 1% of carrageenan. The volume of the leg was measured at different time intervals. Said experimental model consists of two phases: a first, acute, phase lasting 6 hours and a second, chronic, phase, up to 72 hours.
The anti-inflammatory activity of the physical mixture of ketorolac and galactose was evaluated with the carrageenan induced mice hind paw edema assay, as described for ketogal. […]
The carrageenan induced mice hind paw oedema assay described by D'Agostino et al. (2007) was used to evaluate the acute anti-inflammatory activity of the conjugate. Mice were divided into control and test groups of six animals each. Initial paw volumes of all animals were measured using a plethysmometer apparatus (Ugo Basile, Milan, Italy) before treatment. Paw oedema was induced by a subplantar injection of 50 μL of saline containing 1% λ-carrageenan into the right hind paw. […] free acid and ketogal were orally administrated 1 h before carrageenan challenge. Paw volume was measured at different time intervals by plethysmometer. The increase in paw volume was evaluated as the difference between the paw volume measured at each time point and the basal paw volume measured immediately before carrageenan injection.

[5] = test system: mouse carrageenan paw oedema; test: Carrageenan oedema test; type: in vivo, mice; conditions: pro-drug 16.3 mg/kg oral, 1 h before carrageenan
[6] = test system: male Swiss mice; test: Ulcerogenicity studies, ketorolac and Ketogal (gastric lesions); type: in vivo; conditions: oral, ketorolac 10.0 mg/kg, Ketogal 16.3 mg/kg, after 4 hours
Method: The gastric lesions were evaluated in male Swiss mice. To the fasted animals (16-18 h) were administered, by oral route, ketorolac (10 mg/kg), Ketogal (16.3 mg/kg), or the vehicle. After 4 hours, the mice were sacrificed and the stomach removed, cut along the major curvature, washed with physiological solution, and the mucous was examined for evaluation of the presence of petechias and/or gastric lesions. A “score” of 1 was assigned to the petechias, and a “score” based on the diameter (a “score” of 5 for lesions of a diameter of less than 1 mm; a “score” of 10 for lesions with a diameter of more than 1 mm) was, instead, assigned to the lesions.

[7] = test system: writhing induced by acetic acid; test: Writhing test induced by acetic acid; type: in vivo, mice; conditions: 60 min prior to acetic acid
Method: The analgesic activity was studied using the “writhing test” using acetic acid and using magnesium sulphate. To the mice there was administered by intraperitoneal route 1 mL of solution at 1% of acetic acid, and the number of writhing events was evaluated for 20 min, after 5 min from administration of the solution of acetic acid. Writhing is defined as a contraction of the abdominal muscles accompanied by elongation of the body and of the rear legs. Ketorolac and Ketogal were administered by oral route 60 min prior to administration of the solution of acetic acid. The analgesic effect is expressed in number of writhing events as compared to the control.

[8] = test system: writhing induced by magnesium sulphate; test: Writhing induced by magnesium sulphate (visceral pain); type: in vivo, mouse; conditions: ketorolac 0.01 to 10 mg/kg, Ketogal in equimolar dose; 1 hour before magnesium sulphate 120 mg/kg
Method: In order to determine whether ketorolac and Ketogal are able to inhibit visceral pain, the effects of these compounds on “writhing” induced by magnesium sulphate were tested. Magnesium sulphate induces a reversible response when injected by intraperitoneal route in the mouse. The administration of 120 mg/kg of magnesium sulphate induces an average of 6±0.9 episodes of “writhing” in the mouse (n=6).

[9] = test system: male Swiss mice; test: Chronic and sub-chronic experiments: liver, kidney and stomach examination; type: in vivo; conditions: ketorolac 10 mg/Kg, ketogal 16.3 mg/Kg, oral
Method: (§1) Animals were sacrificed and then liver, stomach and kidney were collected in glass tubes and analysed histologically and biochemically.
Liver samples were fixed in 10% buffered formalin and embedded in paraffin, sliced, and stained with hematoxylin & eosin (H&E) for assessment of liver pathology. […] To confirm histological data, western blot analysis for TNF-alpha, IL-6 and malonyldialdehyde assay were then performed in liver lysates.

[10] = test system: COX-1; test: Western blot, stomach, COX-1 protein expression; type: in vivo, mice; conditions: ketorolac 10 mg/Kg, ketogal 16.3 mg/Kg, oral, 3, 5 and 7 days; versus control stomachs
Description: as §1

[11] = test system: PGE synthase; test: Western blot, stomach, PGE synthase protein expression; type: in vivo, mice; conditions: ketorolac 10 mg/Kg, ketogal 16.3 mg/Kg, oral, 3, 5 and 7 days
Description: as §1

[12] = test system: PPAR-gamma; test: Western blot, stomach, PPAR-gamma protein expression; type: in vivo, mice; conditions: ketorolac 10 mg/Kg, ketogal 16.3 mg/Kg, oral, 3, 5 and 7 days
Description: as §1

SMILES | pH 7.4 T½ [1] [hours] | pH 1 T½ [1] [hours] | half-life [2] [h] | gastric lesion score [3] | n. of ulcers [3] | Carrageenan-induced oedema, first phase (0-6 h) ([4]; 1 h before carrageenan) | Carrageenan-induced oedema, second phase (24-96 h) [5] | Oedema formation after parent drug ([4]; 1 h before carrageenan) | further results
CC(C(=O)OCC1O[C@H](O)C(O)[C@@H](O)[C@H]1O)c1ccc(-c2ccccc2)c(F)c1 (stereo partly drawn) [Flugal, flurbiprofen-D-galactos-6′-yl ester] | >8 | >8 | 1 | 0 | 1 ± 1 | did not modify carrageenan-induced oedema | significant anti-inflammatory effect | – | Ulcerogenic activity (in words) ([3]; flugal 16.3 mg/kg): caused only irritation without ulceration
CC(C(=O)O)c1cccc(C(=O)c2ccccc2)c1 (centres unmarked) [Ketoprofen, ketoprofen, reference compound] | – | – | – | – | – | – | – | significantly inhibited oedema formation until 48 h | –
CC(C(=O)OCC1O[C@H](O)C(O)C(O)[C@H]1O)c1cccc(C(=O)c2ccccc2)c1 (stereo partly drawn) [Okigal, Ketoprofen-D-galactos-6′-yl ester] | >8 | >8 | 4 | – | – | slightly modify carrageenan-induced oedema | significant anti-inflammatory effect | – | –
CC(C(=O)O)c1ccc(-c2ccccc2)c(F)c1 (centres unmarked) [flurbiprofen, reference compound] | – | – | – | 2 | 3 ± 1.5 | – | – | significantly inhibited oedema formation until 48 h | –
O=C[C@H](O)[C@@H](O)[C@@H](O)[C@H](O)CO [galactose, reference compound] | – | – | – | – | – | – | – | – | Anti-inflammatory activity of galactose alone ([4]; galactose 16.3 mg/kg oral, 1 h before carrageenan): no anti-inflammatory activity
O=C(c1ccccc1)c1ccc2n1CC[C@@H]2C(=O)O [ketorolac, reference compound] | – | – | – | – | – | – | – | – | Degree of ulcerogenicity ([6]; score 1 petechias, 5 or 10 lesions): 10; Number of ulcers ([6]; fasted mice): 4 ± 0.4; Dosages with significant analgesic effect (p<0.01) ([7]; ketorolac by oral route): significant at the dosages of 1 and 10 mg/kg; Analgesic effect (number of writhing events compared to control) ([7]; oral, ketorolac 0.01-10 mg/kg, Ketogal 0.0163-16.3 mg/kg): dose-dependent analgesic effect; Inhibition of writhing induced by magnesium sulphate [8]: able to inhibit this response in a dose-dependent way; Formation of oedema, first phase, lowest dose ([4]; ketorolac 0.1 mg/kg oral, first phase): had no effect; Kidney histology ([9]; after 3, 5 and 7 days): normal kidney histology; Stomach samples, ulcerogenicity ([9]; for 3 days): high ulcerogenicity degree; Gastric COX-1 protein expression [10]: significantly inhibited; Gastric PGE synthase protein expression [11]: significantly reduced; Gastric PPAR-gamma protein expression [12]: significantly reduced
